Data as given in US20200390902A1, “Antibody-Drug Conjugates Targeted at Human Aspartyl-(Asparaginyl)-B-Hydroxylase (HAAH)” (Panacea Pharmaceuticals, Inc., priority 2017, published 2020).
Entries after “also recorded” stand apart in the source; their conditions may differ. Like-named read-outs stand apart in the source and are kept apart here.

What was measured:
[1] = tested on: H460 cells; test: MTS cell viability assay, H460; type: cell-based, human
Experimental: Human H460 cells were obtained from the American Type Culture Collection (ATCC; Manassas, Va., U.S.A.). The H460 cells were seeded at a density of 5,000 cells/well in 96-well plates and cultured in HG-DMEM (ThermoFisher Scientific, Waltham. Mass., U.S.A.; Catalog No. 11965-092) supplemented with 20 mM HEPES, 4 mM L-glutamine, 1 mM sodium pyruvate, 1× non-essential amino acids, 50 μg/ml gentamicin, and 10% fetal bovine serum (FBS)). Human MOLM-14 cells were obtained from Dr. Ashkan Emadi at University of Maryland (Baltimore. Md., U.S.A.). The MOLM-14 cells were seeded at a density of 5000 cells/well in 96-well plates and cultured in RPMI 1640 with 20% heat-inactivated FBS. The H460 and MOLM-14 cells were treated with naked antibodies or ADCs for 24 hours, starting at the time of cell seeding. By the end of experiment, the cell viability for both cell lines was determined quantitatively using CELL TITER 96 AQUOUS ONE SOLUTION cell proliferation assay, a colorimetric method for determining the number of viable cells (MTS; Promega, Madison. Wis., U.S.A.; Catalog No. G3582).
(§1) FIG. 6 depicts the effects of linker and payload on cytotoxicity to cancer cell H460. […] The Log of the antibody concentration in nM is shown on the X axis.
The bioactivities of these SNS622 ADCs were examined using H460 cells. The cells were treated for 48 hours with these SNS622-MC-DM1s, or with SNS622 as control. Cell viability was evaluated at the end of the experiment using an MTS assay.
SNS622-MC-vc-PAB-DM1 and SNS622-MC-MMAE were also synthesized under different initial DAR ratios of 2.5:1, 5:1 and 10:1 at fixed pH8. The 460 cells were treated for 72 hours with ADCs SNS622-MC-vc-PAB-DM1 at with OAR 2.5:1; 5:1; and 10:1, or SNS622-MC-MMAE at with DAR 2.5:1; 5:1; and 10:1. The cell viability and cell death were separately quantified with […] and lactate dehydrogenase (LDH) release assays. FIG. 8A depicts a graph of the MTA quantification results expressed as percentage of untreated control. FIG. 8B depicts a graph of the LDH assay results expressed as percentage of 512 nM DM1-elicited maximal LDH release. The Log of the antibody concentration in nM is shown on the X axis.

[2] = tested on: normal human lung fibroblasts (NHLF); test: Cell morphology by phase contrast microscope, NHLF; type: cell-based; details: 32 nM, 72 hours
[3] = tested on: H460 cells; test: Lactate dehydrogenase (LDH) release assay, H460
Experimental: as §1
HAAH is highly expressed on the surface of cancer cells, but not on normal adult human cells. The specificity of SNS622-MC-DM1 was examined using human lung carcinoma cell line H460 and LONZA NHLF, a normal human lung fibroblasts (NHLF) cell line. Both cell lines were cultured in HG-DMEM (ThermoFisher Scientific Catalog No. 11965-092) supplemented with 20 mM HEPES (4-(2-hydroxyethyl)-1-piperazineethanesulfonic acid), 4 mM L-glutamine, 1 mM sodium pyruvate, 1× non-essential amino acids, 50 μg/ml gentamicin and 10% fetal bovine serum (FBS). H460 and NHLF cells were seeded into 96-well plates at 5,000 cells per well, following a 2-day FBS deprivation, and released by culture in complete culture medium containing 10% FBS. […] By 72 hours post treatment, cell death was determined by observing cell morphology using a phase contrast microscope at 150×.
The cell death was also quantified using lactate dehydrogenase (LDH) releasing assay. For the LDH assay, a mixture of a 35 μl aliquot of culture medium and 17.5 μl of substrate, enzyme, and dye solutions (Sigma, St. Louis, Mo., U.S.A.) was incubated at room temperature for 30 minutes, and absorbance was measured at 490 nm using a plate reader (ELx805; BioTek, Winooski, Vt., U.S.A.).

[4] = tested on: MIA-PaCa-2 EV-derived tumors; test: Mouse model inoculated with pancreas cancer cells, MIA-PaCa-2 EV tumors; type: in vivo; details: 5 mg/kg, 29 days
Experimental: The efficacy and specificity of SNS622-MC-DM1 was first examined in the mouse model with inoculation of pancreas cancer cells. In this model. 5 to 6-week-old female Nod Scid Gamma (NSG) mice (The Jackson Laboratory, Bar Harbor, Me., U.S.A.) were subcutaneously inoculated with 5×10^5 MIA-PaCa-2 EV cells (MIA-PaCa-2 cells transduced with an empty lentivirus vector) in 100 μl buffer solution on one shoulder, and with 5×10^5 MIA-PaCa-2 ASPH cells (MIA-PaCa-2 cells expressing high levels of ASPH) in 100 μl buffer solution on the other shoulder Two weeks post-inoculation, SNS622-MC-DM1 or IgG1-MC-DM1 was injected at 5 mg/kg through a tail vein once a week for 4 weeks. A representation of the schedule used for the ADC treatments is show n in FIG. 13.
The response to treatment with SNS622-MC-DM1 of tumors derived from MIA-PaCa-2 HAAH cells and from MIA-PaCa-2 EV cells were compared in the same mouse.

Question: For “SNS622-MC-DM1: SNS622 anti-HAAH monoclonal antibody conjugated to mertansine (DM1) by the non-cleavable linker maleimidocaproyl (MC)”, which “Effect on H460 cell viability / growth (MTS)” value ([1]; H460, 24 hours) is on record?
Answer: decreased the H460 cell viability; also recorded: inhibit in vitro cell growth of both H460 and MOLM-14

Question: What about the EC50 ([1]; H460, 24 hours, read-out: EC50, killing of H460 cells (MTS)) of the same substance?
Answer: ~15 nM

Question: What about the IC50 ([1]; H460, 72 hours, reaction DAR 10:1, read-out: IC50 of MTS) of the same substance?
Answer: 64 nM

Question: And the IC50 ([1]; stated for both cancer cell lines (H460 and MOLM-14), read-out: IC50, suppressing cell growth)?
Answer: 15 nM

Question: What about the “Cell density (morphology)” value [2] of the same substance?
Answer: no significant reduction of cell density

Question: What about the “Increase in release of LDH compared to untreated cells” value ([3]; H460, 32 nM, 72 hours) of the same substance?
Answer: 39 ×

Question: And the CC50 ([3]; read-out: LC50 of LDH, H460, 72 hours, reaction DAR 10:1)?
Answer: 36 nM

Question: And the “Effect on MIA-PaCa-2 EV tumor growth” value [4]?
Answer: grew fast throughout the duration of the experiment; also recorded: much lower effect on tumors derived from MIA-PaCa-2 EV cells
